According to BindingDB's records for doi:10.1021/cb900218c (Case Western Reserve University, 2010):

Tests used:
Test in all cases: colorimetric ATPase assay
[1] = biological target: Complex of Sliding-clamp-loader large subunit [R175K] and Sliding-clamp-loader small subunit (Enterobacteria phage T4, UniProt P04526, R175K); settings: pH 7.5; 25 °C
Description: (§1) ATPase assay contained 10 mM Mg2+, 1uM 13/20 DNA, 500uM (r)NTP or (d)NTP, 500 nM gp45, and 500 nM gp44/62 in T4 buffer. ATPase activity was measured by monitoring the release of Pi using a malachite green assay (31) or via the hydrolysis of [gamma-32P]-ATP.

[2] = biological target: Complex of Sliding-clamp-loader large subunit [R175L] and Sliding-clamp-loader small subunit (Enterobacteria phage T4, UniProt P04526, R175L); settings: pH 7.5; 25 °C
Description: as §1

[3] = biological target: T1, Sliding-clamp-loader large/small subunit (Enterobacteria phage T4, UniProt P04526+P04527); settings: pH 7.5; 25 °C
T1 sequence (P04526 whole entry): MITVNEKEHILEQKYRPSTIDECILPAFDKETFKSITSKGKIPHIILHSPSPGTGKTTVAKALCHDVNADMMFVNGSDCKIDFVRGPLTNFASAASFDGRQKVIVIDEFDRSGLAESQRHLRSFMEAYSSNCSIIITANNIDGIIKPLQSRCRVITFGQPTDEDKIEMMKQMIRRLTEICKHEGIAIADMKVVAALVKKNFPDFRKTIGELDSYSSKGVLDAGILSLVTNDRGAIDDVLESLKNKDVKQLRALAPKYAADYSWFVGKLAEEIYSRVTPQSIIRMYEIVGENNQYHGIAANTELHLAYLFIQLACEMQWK
T1 sequence (P04527 whole entry): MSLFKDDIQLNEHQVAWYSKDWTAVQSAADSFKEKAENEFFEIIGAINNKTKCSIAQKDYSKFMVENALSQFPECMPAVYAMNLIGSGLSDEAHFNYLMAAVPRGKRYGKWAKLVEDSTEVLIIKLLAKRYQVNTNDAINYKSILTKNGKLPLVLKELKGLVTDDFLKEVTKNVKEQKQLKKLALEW
Description: as §1

[4] = biological target: DNA polymerase III subunit tau (Escherichia coli, UniProt P06710); settings: pH 7.5; 37 °C
DNA polymerase III subunit tau, sequence (P06710 whole entry): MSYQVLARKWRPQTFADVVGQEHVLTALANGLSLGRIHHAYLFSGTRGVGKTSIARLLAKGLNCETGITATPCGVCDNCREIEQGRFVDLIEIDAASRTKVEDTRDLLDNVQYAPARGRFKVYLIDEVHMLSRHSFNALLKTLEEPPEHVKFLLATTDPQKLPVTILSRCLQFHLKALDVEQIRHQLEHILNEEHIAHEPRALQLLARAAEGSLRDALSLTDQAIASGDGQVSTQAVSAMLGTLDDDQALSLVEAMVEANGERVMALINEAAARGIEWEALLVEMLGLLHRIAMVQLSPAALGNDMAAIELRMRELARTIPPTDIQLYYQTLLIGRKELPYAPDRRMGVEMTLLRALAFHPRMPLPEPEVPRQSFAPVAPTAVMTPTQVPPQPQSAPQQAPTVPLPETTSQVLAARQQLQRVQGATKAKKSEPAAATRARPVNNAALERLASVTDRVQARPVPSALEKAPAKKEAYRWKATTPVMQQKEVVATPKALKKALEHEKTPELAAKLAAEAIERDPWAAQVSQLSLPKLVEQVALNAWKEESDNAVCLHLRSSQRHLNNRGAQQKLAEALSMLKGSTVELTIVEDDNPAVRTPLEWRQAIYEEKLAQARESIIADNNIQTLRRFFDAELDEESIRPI

Complex of Sliding-clamp-loader large subunit [R175L] and Sliding-clamp-loader small subunit, sequence (P04526 as listed by the source R175L): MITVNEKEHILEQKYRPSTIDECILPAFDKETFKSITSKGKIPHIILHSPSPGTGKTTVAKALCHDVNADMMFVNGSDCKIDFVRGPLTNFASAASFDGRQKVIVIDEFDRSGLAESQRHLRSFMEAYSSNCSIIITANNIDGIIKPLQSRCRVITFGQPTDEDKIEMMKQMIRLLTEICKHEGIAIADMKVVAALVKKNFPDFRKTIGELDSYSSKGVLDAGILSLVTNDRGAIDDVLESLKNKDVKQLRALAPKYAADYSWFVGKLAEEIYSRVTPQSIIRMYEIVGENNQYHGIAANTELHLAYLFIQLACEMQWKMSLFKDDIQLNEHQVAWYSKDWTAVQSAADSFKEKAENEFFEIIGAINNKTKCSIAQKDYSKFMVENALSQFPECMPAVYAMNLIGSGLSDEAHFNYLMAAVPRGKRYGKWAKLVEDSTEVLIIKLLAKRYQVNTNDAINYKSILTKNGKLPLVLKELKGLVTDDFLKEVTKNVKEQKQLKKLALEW
Complex of Sliding-clamp-loader large subunit [R175K] and Sliding-clamp-loader small subunit, sequence (P04526 as listed by the source R175K): as the sequence (P04526 as listed by the source R175L) above, with L175K counted along it

SMILES | Ki [1] | Ki [2] | Ki [3] | Ki [4]
O=[N+]([O-])c1cccc2c1ccn2[C@H]1C[C@H](O)[C@@H](COP(=O)(O)OP(=O)(O)OP(=O)(O)O)O1 [4-nitro-indolyl-2'-deoxyriboside triphosphate] | 30.2 µM | 41.6 µM | 34.2 µM | 11.1 µM
Nc1ccc2c(ccn2[C@H]2C[C@H](O)[C@@H](COP(=O)(O)OP(=O)(O)OP(=O)(O)O)O2)c1 [5-amino-indolyl-2'-deoxyriboside triphosphate] | – | – | > 200 µM | 45 µM
O=P(O)(O)OP(=O)(O)OP(=O)(O)OC[C@H]1O[C@@H](n2ccc3cc(C4=CCCCC4)ccc32)C[C@@H]1O [5-cyclohexene-indolyl-2'-deoxyriboside triphosphate] | – | – | 10 µM | 11.8 µM
O=P(O)(O)OP(=O)(O)OP(=O)(O)OC[C@H]1O[C@@H](n2ccc3cc(C4CCCCC4)ccc32)C[C@@H]1O [5-cyclohexyl-indolyl-2'-deoxyriboside triphosphate] | – | – | 47.5 µM | 24 µM
CCc1ccc2c(ccn2[C@H]2C[C@H](O)[C@@H](COP(=O)(O)OP(=O)(O)OP(=O)(O)O)O2)c1 [5-ethyl-indolyl-2'-deoxyriboside triphosphate] | 25.2 µM | 11 µM | 81.5 µM | 9 µM
C=Cc1ccc2c(ccn2[C@H]2C[C@H](O)[C@@H](COP(=O)(O)OP(=O)(O)OP(=O)(O)O)O2)c1 [5-ethylene-indolyl-2'-deoxyriboside triphosphate] | 26.2 µM | 34 µM | > 200 µM | 30 µM
O=P(O)(O)OP(=O)(O)OP(=O)(O)OC[C@H]1O[C@@H](n2ccc3cc(F)ccc32)C[C@@H]1O [5-fluoro-indolyl-2'-deoxyriboside triphosphate] | – | – | > 200 µM | 34 µM
O=[N+]([O-])c1ccc2c(ccn2[C@H]2C[C@H](O)[C@@H](COP(=O)(O)OP(=O)(O)OP(=O)(O)O)O2)c1 [5-nitro-indolyl-2'-deoxyriboside triphosphate] | – | – | – | 21.7 µM
O=P(O)(O)OP(=O)(O)OP(=O)(O)OC[C@H]1O[C@@H](n2ccc3cc(-c4ccccc4)ccc32)C[C@@H]1O [5-phenyl-indolyl-2'-deoxyriboside triphosphate] | – | – | 42 µM | 7.5 µM
O=[N+]([O-])c1ccc2ccn([C@H]3C[C@H](O)[C@@H](COP(=O)(O)OP(=O)(O)OP(=O)(O)O)O3)c2c1 [6-nitro-indolyl-2'-deoxyriboside triphosphate] | 9.1 µM | 5 µM | 5.1 µM | 8.1 µM
Nc1ncnc2c1ncn2C1OC(COP(=O)(O)OP(=O)(O)OP(O)(O)=S)[C@@H](O)[C@H]1O (stereo partly specified) [ATP{gamma}S] | 14 µM | 33.2 µM | 28.9 µM | 13 µM
